# Where two headings read alike, the source gives them in different places.
# How the values were obtained:
# [1] = format: physicochemical
# Procedure: Under ambient conditions the monohydrate of the meloxicam-meglumin salt is the stable modification, but at a relative humidity of over 75% a dihydrate is formed. The enclosed water can only be eliminated from the dihydrate under conditions of very great dryness. […] By intensive drying over a fairly long period the anhydrous form changes more and more into an amorphous form and after 24 h at 100° C. the material is totally amorphous.
# The relevant parameters of the dehydration process are the temperature and duration of dehydration, the influence of which were observed by X-ray powder diffraction. The longer the dehydration process lasts, the less crystalline is the resulting material. […] The X-ray powder diffraction diagrams obtained after 1 hour at 80° C., 15 hours at 70° C., 20 hours at 80° C. and 24 hours at 100° C. are shown in FIG. 7.
# [2] = Saturation solubility of meloxicam and its salts in various dissolving media; format: physicochemical; settings: 0.1 N hydrochloric acid, pH 1, simulated gastric fluid, read-out: Solubility at ambient temperature
# [3] = depending on the formulation; cited from earlier work
# [4] = cited from earlier work
molecule,measurement,setting,value
"CNC[C@H](O)[C@@H](O)[C@H](O)[C@H](O)CO.Cc1cnc(NC(=O)C2=C(O)c3ccccc3S(=O)(=O)N2C)s1.O [Example 1, Meloxicam Meglumin Salt Monohydrate]",hygroscopic properties,[1],hygroscopic
same,solid-state change on dehydration (X-ray powder diffraction),[1]; 24 hours at 100° C.,anhydrous and totally amorphous
same,solid-state change on dehydration (X-ray powder diffraction),[1]; one hour at 80° C.,no change can be detected
"CNC[C@H](O)[C@@H](O)[C@H](O)[C@H](O)CO.Cc1cnc(NC(=O)C2=C(O)c3ccccc3S(=O)(=O)N2C)s1 [Example 3, Anhydrous Meloxicam Meglumin Salt]",stability of the anhydrous form after dehydration,[1],very rapidly absorbs water to form the monohydrate form
"Cc1cnc(NC(=O)C2=C(O)c3ccccc3S(=O)(=O)N2C)s1 [Meloxicam, 4-hydroxy-2-methyl-N-(5-methyl-2-thiazolyl)-2H-1,2-benzothiazine-3-carboxamide-1,1-dioxide]",solubility thermodynamic,[2],0.9 µg/mL
same,time to maximum plasma levels,[3],2 to 8 h
ibuprofen-lysinate,time after administration to peak-plasma level,"[4]; 8 fasting test subjects, ibuprofen-lysinate 1000 mg film-coated tablet, ibuprofenic acid 600 mg sugar-coated tablet",0.55 h
same,time after administration to peak-plasma level,[4]; non-fasting test subjects,1.18 h

# Source: patent US6869948B1 (Boehringer Ingelheim Pharma KG, priority 1998, dated 2005)
